Results published in PubChem BioAssay (NCI).
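Following 48 hours of exposure in 96-well plates, responses at five concentrations were used to interpolate endpoints linearly. TGI: concentration producing complete growth inhibition.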 *1 amine or outer side, *2 acyl side, *3 side chain or, on linkers, in order; H or OH if unused. Where a SMILES comes first, the peptide text is derived from it. Bridges are numbered along the chain shown (N, C = ends). Roman numbers before positions name the chains, in order. [ ]: non-standard residue; d: D form. Actinocin(9to1) = Cc1c2oc3c(C)ccc(C(=O)[*:1])c3nc-2c(C(=O)[*:2])c(N)c1=O; NMeV = CN[CH](C(=O)O)C(C)C; Sar = CNCC(=O)O

Legend:
Assay in all cases: NCI-60 cell line screen, 48 h
SF-539 CNS = tested on: SF-539 CNS
NCI-H226 lung = tested on: NCI-H226 lung
PC-3 prostate = tested on: PC-3 prostate
HS 578T breast = tested on: HS 578T breast
RPMI-8226 leukemia = tested on: RPMI-8226 leukemia
OVCAR-8 ovarian = tested on: OVCAR-8 ovarian
SK-MEL-2 melanoma = tested on: SK-MEL-2 melanoma
SNB-19 CNS = tested on: SNB-19 CNS
K-562 leukemia = tested on: K-562 leukemia
SK-MEL-5 melanoma = tested on: SK-MEL-5 melanoma
HL-60(TB) leukemia = tested on: HL-60(TB) leukemia
A549 NSCLC = tested on: A549 NSCLC
NCI-H23 lung = tested on: NCI-H23 lung
EKVX NSCLC = tested on: EKVX NSCLC
LOX IMVI melanoma = tested on: LOX IMVI melanoma
UO-31 renal = tested on: UO-31 renal
NCI-H460 lung = tested on: NCI-H460 lung
SK-OV-3 ovarian = tested on: SK-OV-3 ovarian
NCI-H522 lung = tested on: NCI-H522 lung
MDA-MB-231 breast = tested on: MDA-MB-231 breast
HCT-116 colon = tested on: HCT-116 colon
786-0 renal = tested on: 786-0 renal
IGROV1 ovarian = tested on: IGROV1 ovarian
M14 melanoma = tested on: M14 melanoma
HT29 colon = tested on: HT29 colon
SR leukemia = tested on: SR leukemia
MOLT-4 leukemia = tested on: MOLT-4 leukemia
ACHN renal = tested on: ACHN renal
HCC-2998 colon = tested on: HCC-2998 colon
HCT-15 colon = tested on: HCT-15 colon
COLO 205 colon = tested on: COLO 205 colon
A498 renal = tested on: A498 renal
U251 CNS = tested on: U251 CNS
OVCAR-4 ovarian = tested on: OVCAR-4 ovarian
BT-549 breast = tested on: BT-549 breast
UACC-257 melanoma = tested on: UACC-257 melanoma
UACC-62 melanoma = tested on: UACC-62 melanoma
OVCAR-5 ovarian = tested on: OVCAR-5 ovarian
MALME-3M melanoma = tested on: MALME-3M melanoma
NCI/ADR-RES ovarian = tested on: NCI/ADR-RES ovarian
OVCAR-3 ovarian = tested on: OVCAR-3 ovarian
SK-MEL-28 melanoma = tested on: SK-MEL-28 melanoma
SF-295 CNS = tested on: SF-295 CNS
MDA-MB-435 = tested on: MDA-MB-435
SN12C renal = tested on: SN12C renal
SNB-75 CNS = tested on: SNB-75 CNS
HOP-62 NSCLC = tested on: HOP-62 NSCLC
T-47D breast = tested on: T-47D breast
HOP-92 NSCLC = tested on: HOP-92 NSCLC
KM12 colon = tested on: KM12 colon
SF-268 CNS = tested on: SF-268 CNS
SW-620 colon = tested on: SW-620 colon
TK-10 renal = tested on: TK-10 renal
MCF7 breast = tested on: MCF7 breast
CCRF-CEM leukemia = tested on: CCRF-CEM leukemia
CAKI-1 renal = tested on: CAKI-1 renal
DU-145 prostate = tested on: DU-145 prostate
RXF 393 renal = tested on: RXF 393 renal
MDA-N = tested on: MDA-N

COCCN(C(=O)c1ccccc1)C1CCC(=O)c2[nH]c3ccccc3c21 (stereo unspecified)
TGI (SF-539 CNS): 24.3 µM | TGI (NCI-H226 lung): 20.6 µM | TGI (PC-3 prostate): 12.8 µM | TGI (HS 578T breast): > 75.5 µM | TGI (RPMI-8226 leukemia): 58.6 µM | TGI (OVCAR-8 ovarian): 21.3 µM | TGI (SK-MEL-2 melanoma): 17.8 µM | TGI (SNB-19 CNS): 24.3 µM | TGI (K-562 leukemia): 18.3 µM | TGI (SK-MEL-5 melanoma): 20.2 µM | TGI (HL-60(TB) leukemia): 58.8 µM | TGI (A549 NSCLC): 31.2 µM | TGI (NCI-H23 lung): 36.9 µM | TGI (EKVX NSCLC): 25.7 µM | TGI (LOX IMVI melanoma): > 39.4 µM | TGI (UO-31 renal): 25.2 µM | TGI (NCI-H460 lung): 34.9 µM | TGI (SK-OV-3 ovarian): 29 µM | TGI (NCI-H522 lung): 6.93 µM | TGI (MDA-MB-231 breast): 15.9 µM | TGI (HCT-116 colon): 26.5 µM | TGI (786-0 renal): 11.9 µM | TGI (IGROV1 ovarian): 13.6 µM | TGI (M14 melanoma): 20.4 µM | TGI (HT29 colon): 24.3 µM | TGI (SR leukemia): > 24.8 µM | TGI (MOLT-4 leukemia): 26.9 µM | TGI (ACHN renal): 30.4 µM | TGI (HCC-2998 colon): 31.8 µM | TGI (HCT-15 colon): 31.9 µM | TGI (COLO 205 colon): 31.5 µM | TGI (A498 renal): 33.4 µM | TGI (U251 CNS): 3.99 µM | TGI (OVCAR-4 ovarian): 22.2 µM | TGI (BT-549 breast): 8.22 µM | TGI (UACC-257 melanoma): > 66.7 µM | TGI (UACC-62 melanoma): 36.5 µM | TGI (OVCAR-5 ovarian): 30.6 µM | TGI (MALME-3M melanoma): 17.7 µM | TGI (NCI/ADR-RES ovarian): 53.6 µM | TGI (OVCAR-3 ovarian): 25.3 µM | TGI (SK-MEL-28 melanoma): 16 µM | TGI (SF-295 CNS): > 56.8 µM | TGI (MDA-MB-435): 17.5 µM | TGI (SN12C renal): 21.1 µM | TGI (SNB-75 CNS): 16.5 µM | TGI (HOP-62 NSCLC): 11.5 µM | TGI (T-47D breast): 34.4 µM | TGI (HOP-92 NSCLC): 25 µM | TGI (KM12 colon): 21.9 µM | TGI (SF-268 CNS): 28.4 µM | TGI (SW-620 colon): 23.3 µM | TGI (TK-10 renal): 35.5 µM | TGI (MCF7 breast): 19.2 µM | TGI (CCRF-CEM leukemia): 26.8 µM | TGI (CAKI-1 renal): 10.9 µM | TGI (DU-145 prostate): 27.9 µM | TGI (RXF 393 renal): 15.2 µM

Cc1c2oc3c(C)ccc(C(=O)NC4C(=O)NC(Cc5ccc(O)cc5)C(=O)N5CCCC5C(=O)N(C)CC(=O)N(C)C(C(C)C)C(=O)OC4C)c3nc-2c(C(=O)NC2C(=O)NC(Cc3ccc(O)cc3)C(=O)N3CCCC3C(=O)N(C)CC(=O)N(C)C(C(C)C)C(=O)OC2C)c(N)c1=O (stereo unspecified) (I: TYP[Sar][NMeV] / II: TYP[Sar][NMeV]; ester I:1-I:C, II:1-II:C; linker I:N-II:N via Actinocin(9to1); configuration not given here)
TGI (SF-539 CNS): > 100 µM | TGI (NCI-H226 lung): > 100 µM | TGI (PC-3 prostate): > 100 µM | TGI (HS 578T breast): 67.3 µM | TGI (RPMI-8226 leukemia): > 100 µM | TGI (OVCAR-8 ovarian): > 100 µM | TGI (SK-MEL-2 melanoma): > 43.6 µM | TGI (SNB-19 CNS): > 56.1 µM | TGI (K-562 leukemia): > 100 µM | TGI (SK-MEL-5 melanoma): > 86.1 µM | TGI (HL-60(TB) leukemia): > 76.2 µM | TGI (A549 NSCLC): > 100 µM | TGI (NCI-H23 lung): > 79.2 µM | TGI (EKVX NSCLC): > 100 µM | TGI (LOX IMVI melanoma): 19.9 µM | TGI (UO-31 renal): > 61.4 µM | TGI (NCI-H460 lung): > 100 µM | TGI (SK-OV-3 ovarian): > 100 µM | TGI (NCI-H522 lung): 45.8 µM | TGI (MDA-MB-231 breast): > 66.9 µM | TGI (HCT-116 colon): > 100 µM | TGI (786-0 renal): > 74.9 µM | TGI (IGROV1 ovarian): 32.6 µM | TGI (M14 melanoma): 28.9 µM | TGI (HT29 colon): > 100 µM | TGI (ACHN renal): > 100 µM | TGI (HCC-2998 colon): > 100 µM | TGI (MDA-N): > 100 µM | TGI (HCT-15 colon): > 100 µM | TGI (COLO 205 colon): > 100 µM | TGI (A498 renal): 56.1 µM | TGI (U251 CNS): > 48.7 µM | TGI (OVCAR-4 ovarian): > 42.1 µM | TGI (UACC-257 melanoma): > 100 µM | TGI (UACC-62 melanoma): > 67 µM | TGI (OVCAR-5 ovarian): > 43.8 µM | TGI (MALME-3M melanoma): 44.3 µM | TGI (NCI/ADR-RES ovarian): > 100 µM | TGI (OVCAR-3 ovarian): > 48.1 µM | TGI (SK-MEL-28 melanoma): > 87 µM | TGI (SF-295 CNS): > 54.6 µM | TGI (MDA-MB-435): > 100 µM | TGI (SN12C renal): > 100 µM | TGI (SNB-75 CNS): 20.3 µM | TGI (HOP-62 NSCLC): > 52.2 µM | TGI (T-47D breast): > 79.9 µM | TGI (KM12 colon): > 100 µM | TGI (SF-268 CNS): > 100 µM | TGI (SW-620 colon): > 100 µM | TGI (TK-10 renal): > 80.3 µM | TGI (MCF7 breast): 14.6 µM | TGI (CAKI-1 renal): 27.5 µM | TGI (DU-145 prostate): > 72.7 µM | TGI (RXF 393 renal): > 57.3 µM

Cc1c(Cl)c(=O)oc2cc(OCC(O)COC(C)C)ccc12 (stereo unspecified)
TGI (PC-3 prostate): > 100 µM | TGI (HS 578T breast): > 100 µM | TGI (RPMI-8226 leukemia): > 100 µM | TGI (OVCAR-8 ovarian): > 100 µM | TGI (SK-MEL-2 melanoma): 58.2 µM | TGI (SNB-19 CNS): > 100 µM | TGI (K-562 leukemia): > 100 µM | TGI (SK-MEL-5 melanoma): 38.3 µM | TGI (HL-60(TB) leukemia): 56.9 µM | TGI (A549 NSCLC): > 100 µM | TGI (NCI-H23 lung): > 100 µM | TGI (EKVX NSCLC): > 100 µM | TGI (LOX IMVI melanoma): > 100 µM | TGI (UO-31 renal): > 100 µM | TGI (NCI-H460 lung): > 100 µM | TGI (SK-OV-3 ovarian): > 100 µM | TGI (NCI-H522 lung): > 100 µM | TGI (HCT-116 colon): > 100 µM | TGI (786-0 renal): > 100 µM | TGI (IGROV1 ovarian): > 100 µM | TGI (M14 melanoma): 92.4 µM | TGI (HT29 colon): > 100 µM | TGI (SR leukemia): 73.2 µM | TGI (MOLT-4 leukemia): 66.9 µM | TGI (ACHN renal): > 100 µM | TGI (HCC-2998 colon): 37.3 µM | TGI (MDA-N): > 100 µM | TGI (COLO 205 colon): 47.8 µM | TGI (U251 CNS): > 100 µM | TGI (OVCAR-4 ovarian): > 100 µM | TGI (UACC-257 melanoma): > 100 µM | TGI (UACC-62 melanoma): > 100 µM | TGI (OVCAR-5 ovarian): > 100 µM | TGI (MALME-3M melanoma): 35.8 µM | TGI (NCI/ADR-RES ovarian): > 100 µM | TGI (OVCAR-3 ovarian): > 100 µM | TGI (SK-MEL-28 melanoma): > 100 µM | TGI (SF-295 CNS): > 100 µM | TGI (MDA-MB-435): > 100 µM | TGI (HOP-62 NSCLC): > 100 µM | TGI (T-47D breast): > 100 µM | TGI (HOP-92 NSCLC): > 100 µM | TGI (KM12 colon): > 100 µM | TGI (SF-268 CNS): > 100 µM | TGI (SW-620 colon): > 100 µM | TGI (TK-10 renal): > 100 µM | TGI (MCF7 breast): 65.3 µM | TGI (CCRF-CEM leukemia): > 100 µM | TGI (DU-145 prostate): > 100 µM
